Laboratory results as given in ChEMBL document CHEMBL1150551, “Novel angiotensin converting enzyme inhibitors containing -hydroxy ketomethylene dipeptide isosteres” (Bioorg Med Chem Lett, 1994).
pIC50: −log10 of the molar value.

These molecules were tested against T1, Angiotensin-converting enzyme (Oryctolagus cuniculus, UniProt P12822) (assay: Inhibitory concentration against angiotensin converting enzyme (ACE); No activity in experimental concentration range).
T1 sequence (P12822 whole entry): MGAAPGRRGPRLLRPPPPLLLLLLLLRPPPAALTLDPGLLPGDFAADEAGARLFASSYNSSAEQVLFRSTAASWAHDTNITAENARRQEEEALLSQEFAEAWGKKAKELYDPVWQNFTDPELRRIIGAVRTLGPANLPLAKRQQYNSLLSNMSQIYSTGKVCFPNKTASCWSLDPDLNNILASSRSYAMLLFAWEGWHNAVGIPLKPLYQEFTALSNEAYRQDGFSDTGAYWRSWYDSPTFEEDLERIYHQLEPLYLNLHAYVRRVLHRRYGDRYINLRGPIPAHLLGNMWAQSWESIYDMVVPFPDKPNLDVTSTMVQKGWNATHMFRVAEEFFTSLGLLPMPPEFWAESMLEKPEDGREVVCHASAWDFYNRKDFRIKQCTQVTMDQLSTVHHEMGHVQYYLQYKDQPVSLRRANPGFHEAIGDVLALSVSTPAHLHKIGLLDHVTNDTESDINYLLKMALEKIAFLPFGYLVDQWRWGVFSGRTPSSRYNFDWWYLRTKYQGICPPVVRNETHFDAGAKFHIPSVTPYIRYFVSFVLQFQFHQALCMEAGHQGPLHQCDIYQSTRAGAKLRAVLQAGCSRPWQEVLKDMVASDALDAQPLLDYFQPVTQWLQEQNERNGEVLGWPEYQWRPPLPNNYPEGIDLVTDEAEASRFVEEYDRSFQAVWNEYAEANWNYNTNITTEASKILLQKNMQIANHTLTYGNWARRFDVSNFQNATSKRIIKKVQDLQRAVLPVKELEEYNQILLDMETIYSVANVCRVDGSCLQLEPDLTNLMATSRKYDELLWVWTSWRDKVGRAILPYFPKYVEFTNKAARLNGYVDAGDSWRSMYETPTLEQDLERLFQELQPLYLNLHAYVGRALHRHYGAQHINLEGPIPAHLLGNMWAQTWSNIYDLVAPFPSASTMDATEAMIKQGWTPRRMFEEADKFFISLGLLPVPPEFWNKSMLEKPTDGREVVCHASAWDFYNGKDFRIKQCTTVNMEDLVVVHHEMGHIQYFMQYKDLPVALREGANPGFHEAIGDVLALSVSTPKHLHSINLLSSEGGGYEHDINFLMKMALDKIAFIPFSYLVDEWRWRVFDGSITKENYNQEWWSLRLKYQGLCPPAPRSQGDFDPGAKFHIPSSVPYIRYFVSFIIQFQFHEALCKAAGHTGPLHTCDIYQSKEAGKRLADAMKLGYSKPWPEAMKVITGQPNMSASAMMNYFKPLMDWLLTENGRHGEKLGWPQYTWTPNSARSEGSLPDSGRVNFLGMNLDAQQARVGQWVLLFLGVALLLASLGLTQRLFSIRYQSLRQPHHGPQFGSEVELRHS
In the case of `O=C(N[C@@H](Cc1ccccc1)C1=NO[C@H](C(=O)N2c3ccccc3C[C@H]2C(=O)O)C1)c1ccccc1`, the IC50 was “Not Active”.
With `O=C(N[C@@H](Cc1ccccc1)C1=NO[C@H](C(=O)N2CCC[C@H]2C(=O)O)C1)c1ccccc1` the IC50 was “Not Active”.
With `O=C(N[C@@H](Cc1ccccc1)C1=NO[C@@H](C(=O)N2CCC[C@H]2C(=O)O)C1)c1ccccc1` the IC50 was “Not Active”.

These molecules were tested against T1, Angiotensin-converting enzyme (assay: Inhibitory concentration against angiotensin converting enzyme (ACE)).
With `O=C(N[C@@H](Cc1ccccc1)C(=O)C[C@@H](O)C(=O)N1CCC[C@H]1C(=O)O)c1ccccc1` the pIC50 was 5.30.
With `O=C(N[C@@H](Cc1ccccc1)C(=O)C[C@H](O)C(=O)N1CCC[C@H]1C(=O)O)c1ccccc1` the pIC50 was 4.00.
Work on `O=C(N[C@@H](Cc1ccccc1)C(=O)C[C@H](O)C(=O)N1c2ccccc2C[C@H]1C(=O)O)c1ccccc1` yielded a pIC50 of 5.30.
For `O=C(N[C@@H](Cc1ccccc1)C(=O)C[C@@H](O)C(=O)N1c2ccccc2C[C@H]1C(=O)O)c1ccccc1`, the pIC50 was 7.05.
`O=C(N[C@@H](Cc1ccccc1)C1=NO[C@@H](C(=O)N2c3ccccc3C[C@H]2C(=O)O)C1)c1ccccc1` showed a pIC50 of under 3.00.
